Experimental data from publication PMC9994261 (Cell, 2023).
Values after ≈ are worked out from the molar mass of the structure shown. Values joined by “and” are separate entries in the source; they are usually repeats but may differ in a detail not shown here. Equal entries are not always repeated. Where two headings read alike, the source gives them in different places.

Assays:
[1] = test system: Mtb ribosome; assay type: biochemical, Mycobacterium tuberculosis
[2] = test system: Mtb methylated ribosome; experiment: Mtb in vitro translation assay with methylated (erythromycin-treated) ribosome; assay type: biochemical, Mycobacterium tuberculosis
[3] = test system: Mtb H37Rv; experiment: microbe, parasite or virus in culture; assay type: cell-based, Mycobacterium tuberculosis; details: read-out: MIC for Mtb in liquid culture
[4] = test system: GFP-expressing Mtb H37Rv in RAW264.7 macrophages; experiment: Intramacrophage assay (MIC for Mtb in macrophages); assay type: cell-based, Mycobacterium tuberculosis
[5] = assay type: in vitro ADME, human
Procedure: The metabolic stability of test compounds was determined as described.[57]^,[58] Incubation and experimental conditions with human hepatic microsomal fractions (purchased from BD Gentest as a pooled batch from 6 donors) were as follows: microsomal proteins, 1 mg/mL; bovine serum albumin, 1 mg/mL; substrate, 5 μM; incubation duration, 20 min; cytochrome P-450 monooxygenases (CYPs) and flavin containing monooxygenases (FMOs) cofactor, 1 mM NADPH. Enzyme activity was stopped with 1 volume of acetonitrile. […] For each test compound and for each microsomal preparation, three incubations were prepared: absolute reference in buffer (without enzyme material, i.e., microsomes); incubation without NADPH cofactor (with microsomal fractions); and incubation with NADPH (with microsomal fractions). For most compounds, biotransformation, as observed in hepatic microsomal fractions in the presence of the NADPH cofactor, consists of oxidative reactions catalyzed by either CYPs or FMOs. In these conditions, the percentage of total metabolism, which corresponds to oxidative metabolism, was determined as follows: [% total metabolism] ≈ [% oxidative metabolism] = [unchanged compound (UC) peak area − NADPH UC peak area + NADPH] × 100%, where NADPH corresponds to the enzyme cofactor for oxidation reactions catalyzed by either CYP or FMO.

[6] = assay type: in vitro ADME
[7] = assay type: in vitro ADME; remark: listed apart in the source
[8] = assay type: in vitro ADME; remark: listed apart in the source
[9] = biological target: T1, CYP3A4 (Homo sapiens, UniProt P08684); experiment: CYP3A4 reversible inhibition in human liver microsomes; assay type: in vitro ADME
T1 construct: human liver microsomes (purchased from BD Gentest as a pooled batch from 150 donors); tissue BD Gentest Cat#452117; host or cells: pooled human liver microsomes (150 donors)
T1 sequence (P08684 whole entry): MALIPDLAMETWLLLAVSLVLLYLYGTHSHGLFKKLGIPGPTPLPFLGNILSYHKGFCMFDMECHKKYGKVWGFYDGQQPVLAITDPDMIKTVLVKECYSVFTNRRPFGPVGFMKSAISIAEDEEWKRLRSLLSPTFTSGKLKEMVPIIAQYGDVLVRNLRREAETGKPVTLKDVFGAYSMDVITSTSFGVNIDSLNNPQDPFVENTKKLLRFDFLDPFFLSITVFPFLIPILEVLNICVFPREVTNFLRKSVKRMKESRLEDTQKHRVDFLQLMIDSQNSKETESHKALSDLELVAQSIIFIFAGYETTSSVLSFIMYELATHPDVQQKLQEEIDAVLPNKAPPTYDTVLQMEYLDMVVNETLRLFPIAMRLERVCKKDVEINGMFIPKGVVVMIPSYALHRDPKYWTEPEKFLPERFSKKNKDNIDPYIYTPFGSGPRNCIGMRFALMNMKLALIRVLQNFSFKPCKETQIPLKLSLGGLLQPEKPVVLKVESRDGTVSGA
Procedure: Incubations were performed with 0.1 mg/mL human liver microsomes (purchased from BD Gentest as a pooled batch from 150 donors) in a final incubation volume of 0.25 mL. The incubation medium contained 0.05 M phosphate buffer (pH 7.4) containing an NADPH regenerating system (including 1.3 mM NADP, 3.3 mM glucose 6-phosphate,3.3 mM MgCl2, and 1.0 U/mL glucose 6-phosphate dehydrogenase). Probe CYP3A4 substrates (midazolam at 3 μM and testosterone at 50 μM), were incubated for 10 and 30 min, respectively, with increasing concentrations of GM, MGM or CGM (concentration range: 1 - 30 μM). The reaction was stopped by adding acetonitrile to precipitate the proteins. The incubation mixtures were then centrifuged for 5 min at 10,000 × g, and an aliquot of the supernatant was analyzed using high-performance liquid chromatography coupled to mass spectrometry for the assessment of 1’-hydroxymidazolam and 6β-hydroxytestosterone metabolite formation.

[10] = physchem; assay type: physicochemical
[11] = in vitro; assay type: in vitro ADME; details: human, Caco-2; read-out: Permeability in Caco2 cells (Papp)
[12] = test system: M. bovis BCG Pasteur; experiment: microbe, parasite or virus in culture; assay type: cell-based, Mycobacterium bovis; details: for MIC: read-out: MIC in Pasteur M. bovis BCG
[13] = test system: RAW264.7 cells; assay type: in vitro ADME, murine; details: versus neutral analog SEQ-416
Procedure: RAW264.7 cells were allowed to adhere in 96 wells plates for 4 hours before compounds were added at 10 μM. Intracellular concentrations were measured by LC-MS/MS after cellular lysis. For each point, up to 4 hours, the Intra/Extra cellular ratio was calculated. Points are the mean ± SD of four tests. Clarithromycin and Azithromycin were used as references.

[14] = pH 2, 50% acetonitrile/water
[15] = in vivo; details: male, Swiss, mouse, po; for AUC: 30 mg/kg, oral 30 mg/kg
[16] = physchem; details: pH 7.4
[17] = physchem
[18] = test system: Mtb H37Rv; experiment: MIC80 after overnight pre-incubation of Mtb with subinhibitory macrolide; assay type: cell-based; details: Mycobacterium tuberculosis, read-out: MIC80
[19] = test system: erm37 mRNA; assay type: cell-based, Mycobacterium tuberculosis; details: inducer at 0.25µg/ml overnight, normalized to 23S
[20] = Mycobacterium tuberculosis variant bovis BCG, BCG

## CON=C1C[C@@H](C)O[C@@H](O[C@@H]2[C@@H](C)[C@H](O[C@H]3C[C@@H](C)N(C)C[C@H](C)O3)[C@@H](C)C(=O)O[C@H](C(C)CO[C@@H]3O[C@H](C)[C@@H](O)[C@@H](OC)[C@H]3OC)[C@H](C)[C@@H](OC(=O)CC(C)C)[C@@H](C)C(=O)[C@@](C)(OC(=O)NCc3ccccc3)C[C@@H]2C)[C@@H]1O (stereo partly drawn) [SEQ-372, (2R,3S,4R,5R,7S,9S,10S,11R,12S,13R)-7-[(benzylcarbamoyl)oxy]-2-(1-{[(2R,3R,4R,5R,6R)-5-hydroxy-3,4-dimethoxy-6-methyltetrahydro-2H-pyran-2-yl]oxy}propan-2-yl)-10-{[(2S,3R,6R)-3-hydroxy-4-(methoxyimino)-6-methyltetrahydro-2H-pyran-2-yl]oxy}-3,5,7,9,11,13-hexamethyl-6,14-dioxo-12-{[(2S,5R,7R)-2,4,5-trimethyl-1,4-oxazepan-7-yl]oxy}oxacyclotetradecan-4-yl 3-methylbutanoate]
[1]; read-out: Inhibition of Mtb translation (IC50 μM)
  IC50: 0.039 µM
[2]; read-out: Translation inhibition of Mtb methylated ribosome (IC50 μM)
  IC50: 0.054 µM
[3]; Mycobacterium tuberculosis, H37RV
  MIC: 0.54 µM (≈ 0.606 µg/mL)
[4]; Mycobacterium tuberculosis, H37RV, read-out: MIC for Mtb tuberculosis in macrophages
  MIC: 0.06 µM (≈ 0.0673 µg/mL)
[4]; versus SEQ-416
  Increased potency against Mtb in the macrophage compared with SEQ-416: approximately 10 fold
[5]; 20 min incubation
  Metabolic stability in human liver microsomes (% metabolized compound after 20 min): 33%
[5]; in presence of ketoconazole CYP3A inhibitor (K)
  Metabolic stability in human liver microsomes (% metabolized compound after 20 min), (K): 19(K) %
[5]; in presence of quinidine CYP2D6 inhibitor (Q)
  Metabolic stability in human liver microsomes (% metabolized compound after 20 min), (Q): /32 (Q) %
[6]
  Metabolic stability in mouse liver microsomes (% metabolized compound after 20 min): 8%
[7]
  Metabolic stability in rat liver microsomes (% metabolized compound after 20 min): 22%
[8]
  Metabolic degradation/clearance from human liver microsomes: 0.006 mL/h/10^6 hepatocytes
[9]; human, pH 7.4
  Cytochrome 3A4 inhibition (in words): inhibited cytochrome 3A4
[9]; midazolam, read-out: CYP3A4 inhibition, IC50 with midazolam as substrate
  IC50: 1200 nM
[9]; testosterone, read-out: CYP3A4 inhibition, IC50 with testosterone as substrate (T)
  IC50: 3800 nM
[10]; MCT pH 7.4, read-out: Solubility: MCT@pH 7.4
  solubility: 1420 µg/mL (≈ 1270 µM)
[10]; aqueous buffer, PBS pH 7.4, read-out: Solubility: PBS@pH 7.4
  solubility: 58.8 µg/mL (≈ 52.4 µM)
[11]
  Papp: 2.2 ×10⁻⁶ cm/s
[12]
  Growth inhibition (MIC80): 0.29 µM and 0.25 µM and 0.34 µM
[12]; Mycobacterium tuberculosis variant bovis BCG, BCG, read-out: Growth inhibition (MIC80)
  MIC80: 0.28 µM (≈ 0.314 µg/mL)
[12]; [20]
  MIC: 0.28 µM (≈ 0.314 µg/mL)
[13]
  Increase in macrophage accumulation compared with SEQ-416: 20 fold
[14]
  Chemical stability: t/12@pH 2: ∼25 h
[15]
  bioavailability: 17%
[15]; AUC in lung @30 mg/kg, lung
  AUC: 18000 ng·h/mL
[15]; AUC in plasma @30 mg/kg, plasma
  AUC: 900 ng·h/mL
[16]
  logD: 4.93
[17]
  pKa: 8.2

## CC[C@H]1OC(=O)[C@H](C)[C@@H](O[C@H]2C[C@@](C)(OC)[C@@H](O)[C@H](C)O2)[C@H](C)[C@@H](O[C@@H]2O[C@H](C)C[C@H](N(C)C)[C@H]2O)[C@](C)(OC)C[C@@H](C)C(=O)[C@H](C)[C@@H](O)[C@]1(C)O [Clarithromycin]
[1]; non-methylated ribosome, read-out: IC50 ribosome
  IC50: 0.354 µM
[2]; methylated ribosome, read-out: IC50 methylated ribosome
  IC50: 88.1 µM
[3]; listed as clarithromycin
  MIC: 8 µM (≈ 5.98 µg/mL)
[3]
  MIC: 2 µM (≈ 1.5 µg/mL)
[12]; [20]
  MIC: 0.1 µM (≈ 0.0748 µg/mL)
[18]; Without induction
  MIC80: 2 µM (≈ 1.5 µg/mL)
[18]; overnight pre-incubation with SEQ-9 0.125µg/ml
  MIC80: 4 µM (≈ 2.99 µg/mL)
[18]; overnight pre-incubation with SEQ-9 0.25µg/ml
  MIC80: 8 µM (≈ 5.98 µg/mL)
[18]; overnight pre-incubation with clarithromycin 0.125µg/ml
  MIC80: 8 µM (≈ 5.98 µg/mL)
[18]; overnight pre-incubation with clarithromycin 0.25µg/ml
  MIC80: 8 µM (≈ 5.98 µg/mL)
[19]
  erm37 mRNA fold change: 57 fold change
